Experimental data taken from US9714232B2, “Substituted piperazine compounds and methods of use thereof” (Sunshine Lake Pharma Co., Ltd., priority 2013, dated 2017).

What was measured:
[1] = molecular target: serotonin transporter in rat synaptosome (Rattus norvegicus (Rat), UniProt P31652); experiment: Inhibitory effect on [3H]5-HT uptake in rat synaptosome; format: biochemical; settings: rat brain synaptosomes, 0.1 μCi [3H]5-HT, 37° C., 15 minutes
Protocol: The synaptosomes (150 μg) prepared from a rat brain were incubated at 37° C. for 15 minutes with 0.1 μCi [^3H]5-HT in the absence or presence of the test compound or the reference compound in a buffer solution containing 106.2 mM NaCl, 4.5 mM KCl, 2.25 mM MgSO4, 1.08 mM NaH2PO4, 22.5 mM NaHCO3, 9.9 mM glucose, 9 μM EGTA and 45 μM ascorbic acid (pH 7.4).
The basal control activity was determined by incubating the same mixture at 4° C. for 15 minutes in the presence of 10 μM imipramine to block the uptake of 5-HT, which was taken as the standard reference compound and tested in each experiment at several concentrations to obtain an inhibition curve.
Following the incubation, the samples were filtered rapidly under vacuum through glass fiber filters (GF/B, Packard) and rinsed twice with an ice-cold incubation buffer using a 96-sample cell harvester (Unifilter, Packard) to eliminate free [^3H]5-HT. The filters were dried and the retained radioactivity was measured in a scintillation counter (Topcount, Packard) using a scintillation cocktail (Microscint 0, Packard). The experimental results were expressed as a percent inhibition of the control uptake of [^3H]5-HT.
Inhibition of serotonin transporter in rat synaptosome was measured by the concentrations of [^3H]5-HT.

[2] = molecular target: human 5-HT1A receptor (Homo sapiens (Human), UniProt P08908); experiment: Affinity for human 5-HT1A receptor ([3H]8-OH-DPAT binding, HEK-293 cell homogenates); settings: 0.3 nM [3H]8-OH-DPAT, human HEK-293 cell homogenates, 22° C., 60 minutes; Ki from IC50 by ChengPrusoff equation
Chain of human 5-HT1A receptor (P08908 whole entry): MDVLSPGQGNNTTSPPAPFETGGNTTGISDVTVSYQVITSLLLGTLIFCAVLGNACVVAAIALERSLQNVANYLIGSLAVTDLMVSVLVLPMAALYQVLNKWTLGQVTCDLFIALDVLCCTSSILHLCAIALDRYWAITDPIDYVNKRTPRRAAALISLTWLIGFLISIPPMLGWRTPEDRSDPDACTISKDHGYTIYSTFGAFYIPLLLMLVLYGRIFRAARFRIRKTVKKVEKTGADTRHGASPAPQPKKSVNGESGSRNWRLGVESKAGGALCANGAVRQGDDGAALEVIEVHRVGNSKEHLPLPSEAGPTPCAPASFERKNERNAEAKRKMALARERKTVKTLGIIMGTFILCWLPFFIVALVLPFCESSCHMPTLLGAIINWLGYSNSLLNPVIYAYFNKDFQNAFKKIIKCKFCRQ
Protocol: Human HEK-293 cell homogenates (36 μg protein) were incubated at 22° C. for 60 minutes with 0.3 nM [^3H]8-0H-DPAT (Perkin-Elmer) in the absence or presence of the test compound in a buffer solution containing 50 mM Tris-HCl (pH 7.4), 10 mM MgSO4, 0.5 mM EDTA and 2 μg/ml aprotinine.
The non-specific binding value was determined by incubating the same mixture in the presence of 10 μM 8-OH-DPAT, which was used as the standard reference compound and tested in each experiment at several concentrations to obtain a competition curve.
Following the incubation, the samples were filtered rapidly under vacuum through glass fiber filter (GF/B, Packard) presoaked with 0.3% PEI and rinsed several times with ice-cold 50 mM Tris-HCl using a 96-sample cell harvester (Unifilter, Packard). The filters were dried and the retained radioactivity was measured in a scintillation counter (Topcount, Packard) using a scintillation cocktail (Microscint 0, Packard). The experimental results were expressed as a percent inhibition of the control radioligand specific binding.
Binding assay of [^3H] 8-OH-DPAT (0.3 nM) with 5-HT1A receptor in human HEK-293 cell was tested by scintillation proximity assay of membrane.

Chain of serotonin transporter in rat synaptosome (P31652 whole entry): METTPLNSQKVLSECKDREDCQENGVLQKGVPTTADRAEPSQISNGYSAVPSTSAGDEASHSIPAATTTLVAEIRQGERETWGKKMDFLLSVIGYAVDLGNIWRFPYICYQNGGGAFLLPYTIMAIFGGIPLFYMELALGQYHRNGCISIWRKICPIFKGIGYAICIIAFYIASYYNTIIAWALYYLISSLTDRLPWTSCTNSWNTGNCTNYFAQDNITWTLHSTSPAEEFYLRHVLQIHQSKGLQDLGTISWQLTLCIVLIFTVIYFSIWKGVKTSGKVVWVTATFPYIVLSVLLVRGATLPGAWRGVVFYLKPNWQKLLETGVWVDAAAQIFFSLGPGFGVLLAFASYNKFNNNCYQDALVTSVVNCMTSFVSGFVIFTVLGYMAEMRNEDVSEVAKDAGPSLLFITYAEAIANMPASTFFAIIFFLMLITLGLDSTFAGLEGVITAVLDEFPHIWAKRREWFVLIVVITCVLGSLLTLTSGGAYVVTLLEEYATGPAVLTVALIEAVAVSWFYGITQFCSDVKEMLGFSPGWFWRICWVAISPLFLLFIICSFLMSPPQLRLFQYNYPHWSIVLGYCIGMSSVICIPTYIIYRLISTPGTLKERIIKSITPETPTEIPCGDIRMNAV

SMILES	IC50 [1] [nM]	Ki [2] [nM]
N#Cc1ccc2[nH]cc(CCCN3CCN(c4ccc(N5CCCNC5=O)cc4)CC3)c2c1 [Example 38, 3-(3-(4-(4-(2-oxotetrahydropyrimidin-1(2H)-yl)phenyl)piperazin-1-yl)propyl)-1H-indole-5-carbonitrile]	1.4	1.9
N#Cc1ccc2[nH]cc(CCCCN3CCN(c4ccc(N5CCOCC5=O)cc4)CC3)c2c1 [Example 6, 3-(4-(4-(4-(3-oxomorpholino)phenyl)piperazin-1-yl)butyl)-1H-indole-5-carbonitrile]	2.2	2.1
N#Cc1ccc2[nH]cc(CCCN3CCN(c4ccc(-n5ccc6ccccc6c5=O)cc4)CC3)c2c1 [Example 30, 3-(3-(4-(4-(1-oxoisoquinolin-2(1H)-yl)phenyl)piperazin-1-yl)propyl)-1H-indole-5-carbonitrile]	4.3	3.6
N#Cc1ccc2[nH]cc(CCCCN3CCN(c4ccc(N5CCCCC5=O)cc4)CC3)c2c1 [Example 2, 3-(4-(4-(4-(2-oxopiperidin-1-yl)phenyl)piperazin-1-yl)butyl)-1H-indole-5-carbonitrile]	1.8	1.9

Results, then the compound that gave them:

IC50 [1] [nM]	Ki [2] [nM]	SMILES
2.2	1.5	N#Cc1ccc2[nH]cc(CCCCCN3CCN(c4ccc(-n5cc(F)cc(F)c5=O)cc4)CC3)c2c1 [Example 28, 3-(5-(4-(4-(3,5-difluoro-2-oxopyridin-1(2H)-yl)phenyl)piperazin-1-yl)pentyl)-1H-indole-5-carbonitrile]
7.1	0.87	O=c1ccccn1-c1ccc(N2CCN(CCCc3c[nH]c4ccc(F)cc34)CC2)cc1 [Example 12, 1-(4-(4-(3-(5-fluoro-1H-indol-3-yl)propyl)piperazin-1-yl)phenyl)pyridin-2(1H)-one]
8.5	1.2	N#Cc1ccc2[nH]cc(CCCN3CCN(c4ccc(N5CCCCC5=O)cc4)CC3)c2c1 [Example 4, 3-(3-(4-(4-(2-oxopiperidin-1-yl)phenyl)piperazin-1-yl)propyl)-1H-indole-5-carbonitrile]
1.4	4.1	N#Cc1ccc2[nH]cc(CCCCCN3CCN(c4ccc(-n5ccccc5=O)cc4)CC3)c2c1 [Example 14, 3-(5-(4-(4-(2-oxopyridin-1(2H)-yl)phenyl)piperazin-1-yl)pentyl)-1H-indole-5-carbonitrile]
1.7	0.48	Cc1ccn(-c2ccc(N3CCN(CCCCc4c[nH]c5ccc(C#N)cc45)CC3)cc2)c(=O)c1 [Example 17, 3-(4-(4-(4-(4-methyl-2-oxopyridin-1(2H)-yl)phenyl)piperazin-1-yl)butyl)-1H-indole-5-carbonitrile]
0.8	0.8	N#Cc1ccc2[nH]cc(CCCCN3CCN(c4ccc(-n5ccncc5=O)cc4)CC3)c2c1 [Example 35, 3-(4-(4-(4-(2-oxopyrazin-1(2H)-yl)phenyl)piperazin-1-yl)butyl)-1H-indole-5-carbonitrile]
